Source: PubChem BioAssay (NCI)
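Results reflect a 48-hour exposure of cells in 96-well plates to compound at five concentrations. Definition used: TGI = concentration required for complete inhibition of growth.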

How the values were obtained:
Experiment in all cases: DTP human tumour cell line panel, 48 h
HCC-2998 colon = system: HCC-2998 colon
SK-MEL-28 melanoma = system: SK-MEL-28 melanoma
SNB-75 CNS = system: SNB-75 CNS
SF-295 CNS = system: SF-295 CNS
UO-31 renal = system: UO-31 renal
LOX IMVI melanoma = system: LOX IMVI melanoma
OVCAR-8 ovarian = system: OVCAR-8 ovarian
OVCAR-3 ovarian = system: OVCAR-3 ovarian
COLO 205 colon = system: COLO 205 colon
BT-549 breast = system: BT-549 breast

SMILES | TGI (HCC-2998 colon) [µM] | TGI (SK-MEL-28 melanoma) [µM] | TGI (SNB-75 CNS) [µM] | TGI (SF-295 CNS) [µM] | TGI (UO-31 renal) [µM] | TGI (LOX IMVI melanoma) [µM] | TGI (OVCAR-8 ovarian) [µM] | TGI (OVCAR-3 ovarian) [µM] | TGI (COLO 205 colon) [µM] | TGI (BT-549 breast) [µM]
O=C1c2cc3c(cc2CC12Cc1ccc4c(c1C2=O)CCC4)CCC3 (centres undefined) | > 100 | > 100 | > 100 | > 100 | > 100 | > 100 | > 100 | > 100 | – | –
CCOC(=O)/C=C/CCC(C)(C)COC(C)=O | > 10 | > 10 | > 10 | > 10 | > 10 | > 10 | > 10 | > 10 | > 10 | –
COc1ccc2c(c1OC)C(=O)N1C2=Cc2c(cc3c(c2OC)OCO3)CC1N(C)C (centres undefined) | > 100 | > 100 | > 100 | > 100 | > 100 | – | > 100 | > 100 | > 100 | > 100
O=[N+]([O-])c1ccc(-c2csc(=[N+]3CCCCC3)s2)cc1 | > 100 | > 100 | > 26.5 | > 62.5 | > 100 | > 100 | > 100 | > 100 | 5.58 | –
COc1ccc(C(=O)/C=C/SC(=NC#N)SC)cc1 | – | 96.7 | 89.2 | 76 | 37.4 | – | 46.8 | 37.2 | 38.8 | –
CCCCNC(=O)Cn1c2ccc(Br)cc2c2nc3ccccc3nc21 | – | > 100 | > 100 | > 100 | > 100 | > 100 | > 100 | > 100 | > 100 | –
CSc1nc(=O)c2nc(-c3cccs3)c(-c3cccs3)nc2n1C | > 100 | > 100 | 49.6 | > 100 | > 100 | > 100 | > 100 | – | > 100 | > 100
C=CN(C=C)C(=O)Cn1cc(-c2ccccc2)nn1 | > 100 | > 100 | > 100 | > 100 | – | > 100 | > 100 | – | > 100 | > 100
COc1cc2c(c(OC)c1)[C@H](C)N(Cc1ccccc1)C(C)C2 (some centres undefined) | > 100 | > 100 | > 100 | > 100 | > 100 | > 100 | > 100 | – | > 100 | > 100
Nc1c(N2CCOCC2)c(=O)nc2[nH]/c(=C\c3ccccc3O)c(=O)n12 | > 100 | > 100 | > 100 | > 100 | > 100 | > 100 | > 100 | – | > 100 | –
O=C(c1ccc([N+](=O)[O-])cc1)N1CCCC1 | > 100 | > 100 | > 100 | > 100 | > 100 | > 100 | > 100 | > 100 | – | > 100
CN1c2ccccc2C2=C(c3ccccc3)CC[C@@H](C(=O)N3C4CC5CC[C@@]4(CS3(=O)=O)C5(C)C)[C@@H]21 (some centres undefined) | – | > 100 | > 100 | > 100 | > 100 | > 100 | > 100 | > 100 | > 100 | > 100
CO[P@@]1(=O)O[C@@H](c2ccccc2)[C@H](O)[C@]1(O)c1ccccc1 | – | > 100 | > 100 | > 100 | > 100 | > 100 | > 100 | > 100 | > 100 | > 100
O=c1c2cc([N+](=O)[O-])ccc2oc2nc3n(c(=O)c12)CCCS3 | > 100 | > 100 | > 100 | > 100 | > 100 | – | – | > 100 | > 100 | > 100
CC[C@]12C=CCN3CCC4(c5cc([C@@]6(C(=O)OC)CC7CN(CCc8c6[nH]c6ccccc86)CC6CCCCC67)c(OC)cc5N(C)C4[C@](O)(C(=O)OC)C1OC(C)=O)[C@@H]32 (some centres undefined) | < 0.01 | – | – | 15.1 | 7.31 | 6.46 | 0.747 | – | < 0.01 | –
Cc1nc2c(=O)n(-c3ccccc3)c(=O)n(-c3ccccc3)c2o1 | > 100 | – | > 100 | > 100 | > 100 | > 100 | > 100 | > 100 | > 100 | > 100
COc1ccc(-c2cc3cc(Cl)cc(Cl)c3oc2=O)cc1OC | > 100 | > 100 | – | > 100 | > 100 | > 100 | > 100 | > 100 | > 100 | > 100
N#Cc1c(-c2ccc([N+](=O)[O-])cc2)c(C#N)c(=O)n(NS(=O)(=O)c2ccccc2)c1O | > 100 | > 100 | – | > 100 | – | > 100 | > 100 | > 100 | > 100 | > 100
CC(C)=C/C(CC(O)(C(F)(F)F)C(F)(F)F)=N\O | > 100 | > 100 | > 100 | > 100 | > 100 | > 100 | > 100 | – | > 100 | –
CCn1ncc2c(=O)n3ncn(-c4ccc(Br)cc4)c3nc21 | > 100 | > 100 | > 100 | > 100 | > 100 | – | > 100 | > 100 | > 100 | > 100
C=C(C)[C@H]1CC23C(=O)[C@@](C)(C[C@H]2C1(C)C)C(=O)C(C(=O)C(C)C)=C3O | – | 28.6 | – | 36.7 | 39.2 | 38.9 | 40.2 | 37.7 | 23.1 | 37.7
Cc1cc(-c2cc(C(C)(C)C)c(O)c(C(C)(C)C)c2)c(C)cc1-c1cc(C(C)(C)C)c(O)c(C(C)(C)C)c1 | – | > 100 | > 100 | > 100 | > 100 | > 100 | > 100 | > 100 | > 100 | > 100
Cc1ccc(C)c(COCCOCn2cc(N3CCOCC3)c(=O)[nH]c2=O)c1 | > 100 | > 100 | > 100 | > 100 | > 100 | > 100 | > 100 | – | > 100 | > 100

SMILES | TGI (HCC-2998 colon) [µM] | TGI (SK-MEL-28 melanoma) [µM] | TGI (SNB-75 CNS) [µM] | TGI (SF-295 CNS) [µM] | TGI (UO-31 renal) [µM] | TGI (LOX IMVI melanoma) [µM] | TGI (OVCAR-8 ovarian) [µM] | TGI (OVCAR-3 ovarian) [µM] | TGI (COLO 205 colon) [µM] | TGI (BT-549 breast) [µM]
CC1=C(C(=O)OCCO[N+](=O)[O-])C(c2ccccc2[N+](=O)[O-])C(C(=O)OC(C)C)=C(C)N1 (centres undefined) | 29.5 | 30.4 | – | 34.1 | 26.2 | 32.3 | 63.7 | 27.9 | 29.7 | 30.4
CC(C)(C)c1ccnc(N=C2N=C(Nc3cc(C(C)(C)C)ccn3)c3ccccc32)c1 | – | 86.8 | > 100 | 52 | 65.3 | > 100 | 41.7 | 47.4 | > 100 | –
CC1(C)OCC(C2OC(C)(C)OC2[C@H]2O[C@@]3(O)[C@H]4[C@H](C=CC[C@@H]42)[C@@H](OCc2ccccc2)[C@H](OCc2ccccc2)[C@H]3OCc2ccccc2)O1 (some centres undefined) | – | > 100 | > 100 | > 100 | 72.3 | > 100 | > 100 | > 100 | > 100 | > 100
CC(C)(C)N=NC(C)(C)N=C=O | – | > 100 | > 100 | > 100 | > 100 | > 100 | > 100 | > 100 | > 100 | –
CC(=O)Oc1ccn2nc(C)c(Br)c2c1 | > 100 | > 100 | 97.2 | > 100 | – | > 100 | > 100 | > 100 | 75.5 | > 100
C=C1[C@@H]2CCC3[C@]4(C)C(CC[C@@]5(C)C(=O)O[C@H](O)[C@@H]45)[C@H](O)[C@]3(C2)[C@H]1OC1OC(CO)C(O)C(O)C1O (some centres undefined) | – | > 50 | > 50 | > 50 | > 50 | > 50 | > 50 | > 50 | > 50 | > 50
CC(C)(C)/C(O)=C\c1nc2cc(F)c(F)cc2[nH]c1=O | > 100 | > 100 | > 100 | > 100 | > 100 | > 100 | > 100 | – | > 100 | > 100
CCC1([N+](=O)[O-])CN(N=O)C1 | – | > 100 | > 100 | > 100 | > 100 | > 100 | > 100 | > 100 | > 100 | > 100
O=C(c1ccco1)N(C(=O)N1CCC(c2ccccc2)CC1)c1ccccc1 | – | > 100 | 46.2 | – | 83.8 | > 100 | > 100 | > 100 | > 100 | > 100
CCOC(=O)C(NC(=O)c1cccc(Cl)c1)(Nc1cccc(C)c1)C(F)(F)F (centres undefined) | 31.4 | 35.1 | 43.9 | – | 32.7 | 30.7 | 61 | – | 36.2 | 26.1
Clc1ccc(/C(=C/c2ccccc2)Cn2ccnc2)cc1 | > 100 | > 100 | > 100 | > 100 | > 100 | 91.1 | > 100 | – | 38.5 | 96.2
COc1cc(/C=N/N=C(\N)NO)c([N+](=O)[O-])cc1OC | > 100 | > 100 | 78.9 | > 100 | > 100 | 83.5 | > 100 | > 100 | > 100 | –
CC(=O)Oc1ccc2c(-c3ccccc3)c(Oc3ccc(Cl)cc3)c(=O)oc2c1 | 19.7 | 31.6 | 19.5 | 32.4 | 28.4 | 36.7 | 36.8 | 28.8 | – | 32.9
CC(=N/NC(=S)N(C)C)/C(=N\NC(=S)N(C)C)c1ccccc1 | 2.99 | 4.03 | 4.62 | 4.46 | 6.21 | > 100 | – | 3.68 | 3.33 | 4.63
CC1(C)N=C(N)N=C(N)N1c1cccc(Cl)c1 | > 100 | > 100 | > 100 | > 100 | > 100 | > 100 | – | > 100 | > 100 | > 100
CCOC(=O)c1c(SCc2cc(=O)[nH]c(=O)[nH]2)n(-c2ccccc2)c(=S)n(-c2ccccc2)c1=O | > 100 | > 100 | > 100 | – | > 100 | – | > 100 | > 100 | > 100 | > 100
N#C/C(C(=O)NCc1ccccc1)=C(/N)N1CCCC1 | > 100 | > 100 | – | > 100 | > 100 | > 100 | > 100 | > 100 | > 100 | –
O=C1Nc2cc(F)ccc2C1=O | > 100 | > 100 | > 100 | > 100 | > 100 | > 100 | > 100 | – | > 100 | –
CCCCN(CCCC)CC(C(C)=O)C(c1ccccc1)c1c(O)c2ccccc2oc1=O (centres undefined) | > 100 | > 100 | 76.3 | > 100 | – | > 100 | > 100 | > 100 | > 100 | –
O=C(NC(C(F)(F)F)(C(F)(F)F)P(=O)(Cc1ccccc1)Cc1ccccc1)C(C(F)(F)F)C(F)(F)F | 49.8 | 53.1 | – | 44.6 | – | 35.2 | 46.5 | > 100 | 38 | –
CNC(=O)CN(CC(=O)O)C(=O)NC | > 100 | – | > 100 | > 100 | > 100 | > 100 | > 100 | > 100 | > 100 | –
COc1ccc(C2C=C(c3ccc(C)cc3)N(c3ccc(OC)cc3[N+](=O)[O-])C3C(=O)OC(=O)C23)c(OC)c1 (centres undefined) | 79.4 | > 100 | 75.9 | > 100 | – | 57 | 39.5 | 59 | > 100 | > 100
CSc1ncc2c(n1)-c1ccccc1OC2NC1CC1 (centres undefined) | – | – | > 100 | > 100 | > 100 | > 100 | > 100 | > 100 | > 100 | > 100
